Source: patent publication US20130338090A1, “Novel Compound Isolated from Allium tuberosum and Use Thereof as Antiviral Agent” (priority 2011, published 2013)

Test system: avian influenza virus (H5N1), A/Vietnam/1194/04(H5N1)-NIBRG-14 vaccine strain
Format: cell-based

Structure (SMILES)	Activity	log100TCID50/ml	viral titer lower than that of the control group	CPE inhibitory concentration
C[C@@H]1O[C@@H](OC[C@H]2O[C@@H](Oc3c(-c4ccc(O)cc4)oc4cc(O)cc(O)c4c3=O)[C@H](O)[C@@H](O)[C@@H]2O)[C@H](O)[C@H](O)[C@H]1O [Compound I, kaempferol 3-O-α-L-rhamnopyranosyl (1→6)-β-D-glucopyranoside]	◯ (key: ◯: antiviral activity defined as a decrease of 4 log units; X: antiviral activity defined as a decrease of 4 log units)	5	4 log	–
O=C(O)[C@H]1O[C@@H](Oc2cc(O)c3c(=O)cc(-c4ccc(O)cc4)oc3c2)[C@H](O)[C@@H](O)[C@@H]1O [Compound II, apigenin 7-O-β-D-glucuronopyranoside]	X (key: ◯: antiviral activity defined as a decrease of 4 log units; X: antiviral activity defined as a decrease of 4 log units)	0	–	>10 µg/mL
